Data set [1] in a line: in vitro. Particulars: human.
Data set [2] concerns HCV Con1 subgenomic replicon of genotype 1b (GS4.1 cells). Kind of data set: microbe, parasite or virus in culture. It counts as cell-based, HCV genotype 1b. The settings on record: Hepatitis C virus; for EC50: 72 h.

A value given as a limit tells only on which side of the number the result lay.

`COP(=O)(Nc1cc(-c2cccc(F)c2)sc1C(=O)O)c1ccc(C)cc1C` (stereo not shown) [Compound 88] yielded a CC50 in data set [1] of over 8.3 µM. Besides, in data set [2], the IC50 lay in the range of 0.1 to 8.3 µM and the EC50 lay in the range of 0.1 to 8.3 µM.
Turning to `COP(=O)(Nc1cc(-c2ccc(NC(=O)c3cscn3)cc2)sc1C(=O)O)c1ccc(C)cc1C` (stereo not shown) [Compound 115], the CC50 in data set [1] is over 8.3 µM. In data set [2], this compound displayed an IC50 of under 0.1 µM and an EC50 of under 0.1 µM.
In the case of `COP(=O)(Nc1cc(-c2ccc(-c3ccc(Cl)c(Cl)c3)cc2)sc1C(=O)O)c1ccc(C)cc1C` (stereo not shown) [Compound 147], the CC50 in data set [1] was over 8.3 µM. For the same compound, in data set [2], the IC50 was in the range of 0.1 to 8.3 µM and the EC50 is 0.1 to 8.3 µM.
`COP(=O)(Nc1cc(-c2ccccc2F)sc1C(=O)O)c1ccc(C)cc1C` (stereo not shown) [Compound 80]: the CC50 in data set [1] is over 8.3 µM. In data set [2], this compound yielded an IC50 of 0.1 to 8.3 µM and an EC50 of over 8.3 µM.
For `COP(=O)(c1ccc(C)cc1C)N(C)c1cc(-c2ccc(-c3cc4ncccn4n3)cc2)sc1C(=O)O` (stereo not shown) [Compound 138], the CC50 in data set [1] is over 8.3 µM. For the same compound, in data set [2], the IC50 is under 0.1 µM and the EC50 is under 0.1 µM.
Consider `COP(=O)(Nc1cc(I)sc1C(=O)O)c1ccc(C)cc1C` (stereo not shown) [Compound 116], for which the CC50 in data set [1] was over 8.3 µM. In data set [2], this compound gave a half-inhibitory concentration (IC50) of 0.1 to 8.3 µM and an EC50 of over 8.3 µM.
As to `COP(=O)(Nc1cc(-c2cccs2)sc1C(=O)O)c1ccc(C)cc1C` (stereo not shown) [Compound 98], the CC50 in data set [1] was over 8.3 µM. In data set [2], this compound yielded an IC50 of 0.1 to 8.3 µM and an EC50 of 0.1 to 8.3 µM.
The compound `COP(=O)(Nc1cc(-c2ccc([N+](=O)[O-])cc2)sc1C(=O)O)c1ccc(C)cc1C` (stereo not shown) [Compound 127] registered a CC50 in data set [1] of over 8.3 µM. In data set [2], this compound gave a half-maximal inhibitory concentration (IC50) of under 0.1 µM and an EC50 of 0.1 to 8.3 µM.
In data set [1], `COP(=O)(Nc1cc(-c2ccc(Cl)cc2)sc1C(=O)O)c1ccc(Cl)cc1F` (stereo not shown) [Compound 133] had a CC50 of over 8.3 µM. In addition, in data set [2], the IC50 lay in the range of 0.1 to 8.3 µM and the EC50 is 0.1 to 8.3 µM.
Regarding `COP(=O)(Nc1cc(-c2ccc(I)cc2)sc1C(=O)O)c1ccc(C)cc1C` (stereo not shown) [Compound 132], the CC50 in data set [1] was over 8.3 µM. This compound had an IC50 in data set [2] of 0.1 to 8.3 µM.
In turn, `COc1ccncc1-c1cc(NP(=O)(OC)c2ccc(C)cc2C)c(C(=O)O)s1` (stereo not shown) [Compound 82] gave a CC50 in data set [1] of over 8.3 µM. In addition, in data set [2], the IC50 was 0.1 to 8.3 µM and the EC50 was in the range of 0.1 to 8.3 µM.
In turn, `COP(=O)(Nc1cc(-c2ccc(C#Cc3cncn3C)cc2)sc1C(=O)O)c1ccc(C)cc1C` (stereo not shown) [Compound 101] showed a CC50 in data set [1] of over 8.3 µM. In addition, in data set [2], the IC50 was under 0.1 µM and the EC50 was in the range of 0.1 to 8.3 µM.
For `CCOP(=O)(Cc1cc(-c2ccc(-c3cc4ncccn4n3)cc2)sc1C(=O)O)c1ccc(C)cc1C` (stereo not shown) [Compound 175] the same measures were over 8.3 µM, under 0.1 µM and 0.1 to 8.3 µM.
`CCOP(=O)(Nc1cc(-c2ccc(F)cc2)sc1C(=O)O)c1ccc(Cl)cc1Cl` (stereo not shown) [Compound 23] registered a CC50 in data set [1] of over 8.3 µM. Also, in data set [2], the IC50 was in the range of 0.1 to 8.3 µM and the EC50 is over 8.3 µM.
On to `COc1cc(-c2ccc(-c3cc(NP(=O)(OC)c4ccc(C)cc4C)c(C(=O)O)s3)cc2)cc(OC)c1OC` (stereo not shown) [Compound 123], for which the CC50 in data set [1] is over 8.3 µM. In data set [2], this compound returned an IC50 of 0.1 to 8.3 µM and an EC50 of over 8.3 µM.
`COP(=O)(Nc1cc(-c2ccccc2)sc1C(=O)O)c1ccc(Cl)cc1Cl` (stereo not shown) [Compound 159] returned a CC50 in data set [1] of over 8.3 µM. In data set [2], the IC50 lay in the range of 0.1 to 8.3 µM and the EC50 is over 8.3 µM.
The compound `COC(=O)c1sc(-c2ccc(Cl)cc2)cc1NP(=O)(OC)c1ccc(C)cc1C` (stereo not shown) [Compound 140] displayed a CC50 in data set [1] of over 8.3 µM. The same compound showed an EC50 in data set [2] of over 8.3 µM.
`COP(=O)(Nc1cc(-c2ccc(Cl)cc2)sc1C(=O)O)c1ccc(Cl)cc1C` (stereo not shown) [Compound 134]: the CC50 in data set [1] was over 8.3 µM. Further, in data set [2], the IC50 was under 0.1 µM and the EC50 is 0.1 to 8.3 µM.
The compound `COP(=O)(Nc1cc(-c2ccc(C#CCC(C)C)cc2)sc1C(=O)O)c1ccc(C)cc1C` (stereo not shown) [Compound 104] yielded a CC50 in data set [1] of over 8.3 µM. Moreover, in data set [2], the IC50 lay in the range of 0.1 to 8.3 µM and the EC50 was over 8.3 µM.
Take `CCOP(=O)(Cc1cc(-c2ccc(F)cc2)sc1C(=O)O)c1ccc(C)cc1C` (stereo not shown) [Compound 179]: the CC50 in data set [1] is over 8.3 µM. In data set [2], this compound showed a half-inhibitory concentration (IC50) of 0.1 to 8.3 µM and an EC50 of over 8.3 µM.
In data set [1], `COP(=O)(Nc1cc(-c2ccc(-c3c(C)noc3C)cc2)sc1C(=O)O)c1ccc(C)cc1C` (stereo not shown) [Compound 128] registered a CC50 of over 8.3 µM. In addition, in data set [2], the IC50 was 0.1 to 8.3 µM and the EC50 is over 8.3 µM.
Consider `COP(=O)(Nc1cc(-c2ccc(C#Cc3ccsc3)cc2)sc1C(=O)O)c1ccc(C)cc1C` (stereo not shown) [Compound 103], for which the CC50 in data set [1] was over 8.3 µM. Besides, in data set [2], the IC50 is under 0.1 µM and the EC50 is under 0.1 µM.
For `CCOP(=O)(Nc1cc(-c2ccccc2)sc1C(=O)O)c1ccc(Cl)cc1Cl` (stereo not shown) [Compound 28, 2-Thiophenecarboxylic acid, 3-N-[(2,4-dichlorophenyl)-phosphonamidateethyl ester]-5-phenyl], the CC50 in data set [1] is over 8.3 µM. Further, in data set [2], the IC50 fell in the range of 0.1 to 8.3 µM and the EC50 is over 8.3 µM.
In data set [1], `Cc1ccc(P(=O)(Nc2cc(-c3ccc(Cl)cc3)sc2C(=O)O)OC(C)C)c(C)c1` (stereo not shown) [Compound 89] registered a CC50 of over 8.3 µM. Also, in data set [2], the IC50 was 0.1 to 8.3 µM and the EC50 lay within 0.1 to 8.3 µM.
Consider `COP(=O)(Nc1cc(-c2ccc(-c3cc4ncccn4n3)cc2)sc1C(=O)OCc1ccccc1)c1ccc(C)cc1C` (stereo not shown) [Compound 112], for which, in data set [1], the CC50 is over 8.3 µM. In data set [2], the IC50 fell in the range of 0.1 to 8.3 µM and the EC50 lay in the range of 0.1 to 8.3 µM.
Take `COC(=O)c1sc(-c2ccc(-c3cc4ncccn4n3)cc2)cc1NP(=O)(OC)c1ccc(C)cc1C` (stereo not shown) [Compound 142]: the CC50 in data set [1] is over 8.3 µM. The same compound showed an EC50 in data set [2] of 0.1 to 8.3 µM.
`COP(=O)(Nc1cc(-c2ccc(C#CC3CC3)cc2)sc1C(=O)O)c1ccc(C)cc1C` (stereo not shown) [Compound 118] registered a CC50 in data set [1] of over 8.3 µM. Further, in data set [2], the IC50 is under 0.1 µM and the EC50 lay in the range of 0.1 to 8.3 µM.
`COP(=O)(Cc1cc(-c2ccccc2)sc1C(=O)O)c1ccc(C)cc1C` (stereo not shown) [Compound 177] registered a CC50 in data set [1] of over 8.3 µM. In data set [2], this compound registered an IC50 of 0.1 to 8.3 µM and an EC50 of over 8.3 µM.
With `CCOP(=O)(Nc1cc(-c2ccc(Cl)cc2)sc1C(=O)O)C1CC=C(C)CC1` (stereo not shown) [Compound 117], the CC50 in data set [1] is over 8.3 µM. Moreover, in data set [2], the IC50 was in the range of 0.1 to 8.3 µM and the EC50 was over 8.3 µM.
Consider `COP(=O)(Nc1cc(-c2ccccc2)sc1C(=O)O)c1ccccc1` (stereo not shown) [Compound 25, 2-Thiophenecarboxylic acid, 3-N-(phenyl-phosphonamidatemethyl ester)-5-phenyl], for which, in data set [1], the CC50 is over 8.3 µM. For the same compound, in data set [2], the IC50 is over 8.3 µM and the EC50 is over 8.3 µM.
In data set [1], `CCOP(=O)(Nc1cc(-c2ccc(C#N)cc2)sc1C(=O)O)c1ccc(Cl)cc1Cl` (stereo not shown) [Compound 29, 2-Thiophenecarboxylic acid, 3-N-[(2,4-dichlorophenyl)-phosphonamidateethyl ester]-5-(4-cyanophenyl)] had a CC50 of over 8.3 µM. This compound displayed an EC50 in data set [2] of over 8.3 µM.
In data set [1], `COP(=O)(Nc1cc(-c2ccc(-c3cc4ncccn4n3)cc2)sc1C(=O)O)c1ccc(C)cc1C` (stereo not shown) [Compound 26] came in with a CC50 of over 8.3 µM. Also, in data set [2], the IC50 was under 0.1 µM and the EC50 was under 0.1 µM.
`COP(=O)(Nc1cc(-c2ccc(-c3cc4ncccc4o3)cc2)sc1C(=O)O)C1CC=C(C)CC1` (stereo not shown) [Compound 83]: the CC50 in data set [1] was over 8.3 µM. In data set [2], this compound yielded an IC50 of under 0.1 µM and an EC50 of 0.1 to 8.3 µM.
Compound `COC(=O)c1sc(-c2ccc(I)cc2)cc1NP(=O)(OC)c1ccc(C)cc1C` (stereo not shown) [Compound 144] had a CC50 in data set [1] of over 8.3 µM. Besides, the EC50 in data set [2] was over 8.3 µM.
In turn, `CCOP(=O)(Nc1cc(-c2ccc(Cl)cc2)sc1C(=O)O)C1CCC(C)CC1` (stereo not shown) [Compound 110] displayed a CC50 in data set [1] of over 8.3 µM. Also, in data set [2], the IC50 was in the range of 0.1 to 8.3 µM and the EC50 was over 8.3 µM.
For the compound `CCOP(=O)(c1ccc(C)cc1C)N(c1cc(-c2ccc(F)cc2)sc1C(=O)O)C(C)C` (stereo not shown) [Compound 33, 2-Thiophenecarboxylic acid, 3-N-isopropyl-N-[(2,4-dimethyl-phenyl)-phosphonamidateethyl ester]-5-(4-fluorophenyl)], the CC50 in data set [1] is over 8.3 µM. In data set [2], this compound came in with an IC50 of 0.1 to 8.3 µM and an EC50 of 0.1 to 8.3 µM.
In data set [1], `COC(=O)c1sc(-c2ccc(F)cc2)cc1NP(=O)(OC)c1ccc(C)cc1C` (stereo not shown) [Compound 172] had a CC50 of over 8.3 µM. For the same compound, in data set [2], the IC50 was over 8.3 µM and the EC50 was over 8.3 µM.
Compound `CCOP(=O)(Nc1cc(-c2ccc(F)cc2)sc1C(=O)OC)c1ccc(C)cc1C` (stereo not shown) [Compound 173] returned a CC50 in data set [1] of over 8.3 µM. In data set [2], this compound registered an IC50 of over 8.3 µM and an EC50 of over 8.3 µM.
In turn, `CCOP(=O)(Nc1cc(-c2ccc(OCc3ccccc3)cc2)sc1C(=O)O)c1ccc(Cl)cc1Cl` (stereo not shown) [Compound 158] had a CC50 in data set [1] of over 8.3 µM. In data set [2], this compound showed an IC50 of 0.1 to 8.3 µM and an EC50 of 0.1 to 8.3 µM.
Take `COP(=O)(Nc1cc(-c2ccc(Br)cc2)sc1C(=O)O)c1ccc(C)cc1C` (stereo not shown) [Compound 141]: the CC50 in data set [1] was over 8.3 µM. In data set [2], the IC50 was under 0.1 µM and the EC50 fell in the range of 0.1 to 8.3 µM.
Turning to `CCOP(=O)(Nc1cc(-c2cc3ccccc3s2)sc1C(=O)O)c1ccc(Cl)cc1Cl` (stereo not shown) [Compound 157], the CC50 in data set [1] is over 8.3 µM. In data set [2], this compound came in with an IC50 of 0.1 to 8.3 µM and an EC50 of over 8.3 µM.
The compound `COP(=O)(Nc1cc(-c2ccc(-c3ccc(C(F)(F)F)cc3)cc2)sc1C(=O)O)c1ccc(C)cc1C` (stereo not shown) [Compound 129] had a CC50 in data set [1] of over 8.3 µM. In data set [2], this compound returned an IC50 of under 0.1 µM and an EC50 of 0.1 to 8.3 µM.
With `COP(=O)(Nc1cc(-c2ccc(C#Cc3cscn3)cc2)sc1C(=O)O)c1ccc(C)cc1C` (stereo not shown) [Compound 139], in data set [1], the CC50 was over 8.3 µM. Moreover, in data set [2], the IC50 was under 0.1 µM and the concentration for a half-maximal effect (EC50) was under 0.1 µM.
In the case of `COP(=O)(Cc1cc(-c2ccc(F)cc2)sc1C(=O)O)c1ccc(C)cc1C` (stereo not shown) [Compound 176], the CC50 in data set [1] is over 8.3 µM. Also, in data set [2], the IC50 lay in the range of 0.1 to 8.3 µM and the EC50 is over 8.3 µM.

The values above are taken from patent US8193372B2, “Phosphothiophene and phosphothiazole HCV polymerase inhibitors” (Idenix Pharmaceuticals, Inc., priority 2009, dated 2012).
